According to patent US8575181B2, “Purine derivatives for use in the treatment of allergic, inflammatory and infectious diseases” (GlaxoSmithKline LLC, priority 2008, dated 2013):

Tests used:
Format in all cases: cell-based
Interferon-α [1] = assay: Induction of Interferon-α using cryopreserved human PBMCs; details: PBMC, 24 h, 24 h incubation, normalised to 1 uM resiquimod and DMSO, read-out: mean pEC50 (induction of Interferon-α) (converted)
Experimental: Assay for the Induction of Interferon-α Using Cryopreserved Human Peripheral Blood Mononuclear Cells (PBMCs)
Compounds were dissolved in DMSO. Serial 2-fold dilutions with DMSO were prepared and 0.25 μl dispensed into 384-well clear Greiner polypropylene plates.
Blood samples of up to 200 ml were obtained from healthy human donors. Whole blood in 25 ml volumes was overlaid onto 15 ml Ficoll gradients in Leucosep tubes, and centrifuged at 1000 g for 20 min. Cells in the band at the plasma/histopaque interface were carefully removed and washed twice with PBS (centrifuged at 400 g for 5 min to harvest). The final pellet was resuspended in freezing medium (90% Heat-inactivated serum, 10% DMSO) to a cell concentration of 4×10^7 cells/ml. The resuspended cells were then cryopreserved (frozen) using a rate controlled freezer, and stored at −140° C. for up to 4 months.
Incubation and Assay for Interferon-α
Immediately prior to assay, vials of cryopreserved (frozen) PBMCs were thawed rapidly in a water bath at 37° C. A 1:10 dilution of the cells in trypan blue was prepared and counted. The PBMCs were then diluted in growth media [RPMI 1640 containing 10% fetal calf serum (invitrogen), Penicillin+[…] (Gibco cat. #25030-024, 1:50), L-Glutamine 2 mM, and 1000 units/ml recombinant human IFN-gamma (Preprotech catalogue #300-02)] to a density of 1×10^6 cells/ml, and 50 ul/well dispensed to 384-well clear Greiner polypropylene plates containing 0.25 μl DMSO or test compound in 0.25 μl DMSO. […] Plates were incubated for 24 h at 37° C. in 5% CO2.
A multi-isoform immunoassay was used to quantify IFN-α in PBMC supernatants. Rabbit polyclonal antibody against human IFN-α (catalogue number 31101, Stratech Scientific) was diluted 1:10000 in assay buffer (RPMI 1640 containing 10% fetal calf serum, Invitrogen) and 20 μl was added to each well of an MSD (Meso-Scale Discovery) single small-spot 384-well GAR (goat anti-rabbit antibody coated) plate. The plate was incubated for 1 h at room temperature with vigorous shaking. Following three washes with PBS, 20 μl of cell supernatant were added to each well of the plate. The plate was then incubated for 1 h at room temperature with vigorous shaking. A pair of monoclonal antibodies to IFN-α (catalogue numbers 21100 and 21112, Stratech Scientific) were labelled with sulfo-TAG (MSD), diluted 1:1000 in assay buffer and 20 μl added to each well of the plate. The plate was further incubated for 1 h at room temperature with vigorous shaking. Following three washes with PBS, 30 μl of ×2 T buffer (MSD) was added to each well and the plate was read on an MSD Sector 6000 plate reader.
Data were normalised to internal plate controls of 1 uM resiquimod (n=16) and DMSO (n=16). pEC50 values were derived by 4-parameter curve fit with IRLS in ActivityBase, from 11-point, two-fold serial dilution of test compounds.

Interferon-α [2] = assay: Induction of Interferon-α using fresh human PBMCs; details: PBMC, two donors, 24 hr incubation, percentage of 2 μM resiquimod control, read-out: mean pEC50 for induction of IFN-α (converted)
Experimental: (§1) Assay for the Induction of Interferon-α and TNF-α Using Fresh Human Peripheral Blood Mononuclear Cells (PBMCs)
(§2) Compounds were dissolved and serially diluted in DMSO to give 100× the required concentration range using a Biomek 2000. 1 ul of test compound was transferred into 96-well tissue culture plates using a Biomek FX. Each compound was assayed in duplicate for each donor. Each plate contained a dilution series of the TLR7/8 agonist resiquimod as standard and Column 11 contained 1 μl of 200 μM resiquimod (giving a 2 μM final concentration, used to define the approximate maximal response to resiquimod).
(§3) Blood samples from two human donors were collected into sodium heparin (10 U/ml). 25 ml volumes of whole blood were overlaid onto 15 mls Histopaque in Leucosep tubes which were centrifuged at 800 g for 20 min and the band at the plasma/histopaque interface carefully removed. The collected cells were centrifuged at 2500 rpm for 10 min and the pellet resuspended in 10 ml of media (RPMI 1640 (Low endotoxin) supplemented with 10% v/v foetal calf serum (FCS, low endotoxin) 100 U/ml penicillin G, 100 μg/ml streptomycin, 10 mM L-glutamine and 1× non-essential amino acids). A 1:20 dilution of the cells was prepared using trypan blue & the cells counted using a haemocytometer. The PBMCs were diluted to give a final concentration of 2×10^6/ml and 100 ul of this cells suspension was added to wells containing 1 μl of diluted test compound.
(§4) Incubation and Assays for Interferon-α and TNF-α
(§5) The cell preparations were incubated for 24 hr (37° C., 95% air, 5% CO2) after which a sample of the supernatant was removed using the Biomek FX and assayed for both IFN-α and TNF-α using the MSD (Mesoscale Discovery) electrochemiluminescence assay platform. The IFN-α assay was carried out similarly to that described above. The TNF-α assay was carried out as per kit instructions (Cat No K111BHB).
(§6) Cytokine released was expressed as a percentage of the 2 μM resiquimod control (column 11). This percentage was plotted against compound concentration and the pEC50 for the response determined by non-linear least squares curve fitting. For the IFN-α responses generally a 4 parameter logistic model was selected. For the TNF responses where a clear maximum response was obtained (i.e. a well defined plateau in the response was observed) then a 4 parameter model was generally used. If the upper asymptote of the curve wasn't well defined then the curve fitting was generally constrained to a maximal response of 100% (i.e. to the response to 2 μM resiquimod) or to the response of the highest concentration tested if this was greater than the resiquimod response. Some curves were bell shaped for one or both cytokines and the cytokine data on the down slope of the bell shaped response (i.e. concentrations above those giving the maximal response) were generally excluded from the fit, usually with the exception of the concentration immediately above the peak response. Curve fitting thus concentrated on the up slope of the dose response curve.

TNF-α = assay: Induction of TNF-α using fresh human PBMCs; details: PBMC, two donors, 24 hr incubation, percentage of 2 μM resiquimod control, read-out: mean pEC50 for induction of TNF-α (converted)
Experimental: as §1, §2, §3, §4, §5, §6

| EC50 (Interferon-α [2]) [µM] | EC50 (TNF-α) [µM] | Compound | EC50 (Interferon-α [1]) [µM] |
| --- | --- | --- | --- |
| – | – | CCCCOc1nc(N)c2[nH]c(=O)n(CCCN[C@H]3CCCO3)c2n1 [Example 1, 6-Amino-2-(butyloxy)-9-{3-[(2R)-tetrahydro-2-furanylamino]propyl}-7,9-dihydro-8H-purin-8-one] | < 10 |
| – | – | CCCCOc1nc(N)c2[nH]c(=O)n(CCCN[C@@H]3CCCO3)c2n1 [Example 2, 6-Amino-2-(butyloxy)-9-{3-[(2S)-tetrahydro-2-furanylamino]propyl}-7,9-dihydro-8H-purin-8-one] | < 10 |
| < 1 | > 10 | CCCCOc1nc(N)c2[nH]c(=O)n(CCCNCC3CCCO3)c2n1 (centres unmarked) [Example 3, 6-Amino-2-(butyloxy)-9-{3-[(tetrahydro-2-furanylmethyl)amino]propyl}-7,9-dihydro-8H-purin-8-one] | < 10 |
| – | – | CCCCOc1nc(N)c2[nH]c(=O)n(CCCNCC3CCOC3)c2n1 (centres unmarked) [Example 4, 6-Amino-2-(butyloxy)-9-{3-[(tetrahydro-3-furanylmethyl)amino]propyl}-7,9-dihydro-8H-purin-8-one] | < 10 |
| < 1 | > 10 | CCCCOc1nc(N)c2[nH]c(=O)n(CCCNCCC3CCCO3)c2n1 (centres unmarked) [Example 5, 6-Amino-2-(butyloxy)-9-(3-{[2-(tetrahydro-2-furanyl)ethyl]amino}propyl)-7,9-dihydro-8H-purin-8-one] | < 10 |
| – | – | CCCCOc1nc(N)c2[nH]c(=O)n(CCCNCC3CCCCO3)c2n1 (centres unmarked) [Example 6, 6-Amino-2-(butyloxy)-9-{3-[(tetrahydro-2H-pyran-2-ylmethyl)amino]propyl}-7,9-dihydro-8H-purin-8-one] | < 10 |
| – | – | CCCCOc1nc(N)c2[nH]c(=O)n(CCCNCC3CCCOC3)c2n1 (centres unmarked) [Example 7, 6-Amino-2-(butyloxy)-9-{3-[(tetrahydro-2H-pyran-3-ylmethyl)amino]propyl}-7,9-dihydro-8H-purin-8-one] | < 10 |
| < 1 | > 10 | CCCCOc1nc(N)c2[nH]c(=O)n(CCCNCC3CCOCC3)c2n1 [Example 8, 6-Amino-2-(butyloxy)-9-{3-[(tetrahydro-2H-pyran-4-ylmethyl)amino]propyl}-7,9-dihydro-8H-purin-8-one] | < 10 |
| < 1 | > 10 | CCCCOc1nc(N)c2[nH]c(=O)n(CCCNCCC3CCCCO3)c2n1 (centres unmarked) [Example 9, 6-Amino-2-(butyloxy)-9-(3-{[2-(tetrahydro-2H-pyran-2-yl)ethyl]amino}propyl)-7,9-dihydro-8H-purin-8-one] | < 10 |
| – | – | CCCCOc1nc(N)c2[nH]c(=O)n(CCCNCCC3CCCOC3)c2n1 (centres unmarked) [Example 10, 6-Amino-2-(butyloxy)-9-(3-{[2-(tetrahydro-2H-pyran-3-yl)ethyl]amino}propyl)-7,9-dihydro-8H-purin-8-one] | < 10 |
| – | – | CCCCOc1nc(N)c2[nH]c(=O)n(CCCNCCC3CCOCC3)c2n1 [Example 11, 6-Amino-2-(butyloxy)-9-(3-{[2-(tetrahydro-2H-pyran-4-yl)ethyl]amino}propyl)-7,9-dihydro-8H-purin-8-one] | < 10 |
| < 0.1 | > 1 | CCC[C@H](C)Oc1nc(N)c2[nH]c(=O)n(CCCNCC3CCCO3)c2n1 (stereo partly drawn) [Example 12, 6-Amino-2-{[(1S)-1-methylbutyl]oxy}-9-{3-[(tetrahydro-2-furanylmethyl)amino]propyl}-7,9-dihydro-8H-purin-8-one] | – |
| < 0.1 | > 1 | CCC[C@H](C)Oc1nc(N)c2[nH]c(=O)n(CCCNCCC3CCCO3)c2n1 (stereo partly drawn) [Example 13, 6-Amino-2-{[(1S)-1-methylbutyl]oxy}-9-(3-{[2-(tetrahydro-2-furanyl)ethyl]amino}propyl)-7,9-dihydro-8H-purin-8-one] | – |
| < 0.1 | > 1 | CCC[C@H](C)Oc1nc(N)c2[nH]c(=O)n(CCCNCC3CCOCC3)c2n1 [Example 14, 6-Amino-2-{[(1S)-1-methylbutyl]oxy}-9-{3-[(tetrahydro-2H-pyran-4-ylmethyl)amino]propyl}-7,9-dihydro-8H-purin-8-one] | < 10 |
| – | – | CCCCNc1nc(N)c2[nH]c(=O)n(CCCNCC3CCCO3)c2n1 (centres unmarked) [Example 15, 6-Amino-2-(butylamino)-9-{3-[(tetrahydro-2-furanylmethyl)amino]propyl}-7,9-dihydro-8H-purin-8-one] | < 10 |
| < 1 | > 10 | CCCCNc1nc(N)c2[nH]c(=O)n(CCCNCCC3CCCO3)c2n1 (centres unmarked) [Example 16, 6-Amino-2-(butylamino)-9-(3-{[2-(tetrahydro-2-furanyl)ethyl]amino}propyl)-7,9-dihydro-8H-purin-8-one] | < 10 |
| – | – | CCCCNc1nc(N)c2[nH]c(=O)n(CCCNCC3CCOCC3)c2n1 [Example 17, 6-Amino-2-(butylamino)-9-{3-[(tetrahydro-2H-pyran-4-ylmethyl)amino]propyl}-7,9-dihydro-8H-purin-8-one] | < 10 |
| – | – | CCCCNc1nc(N)c2[nH]c(=O)n(CCCNCCC3CCCCO3)c2n1 (centres unmarked) [Example 18, 6-Amino-2-(butylamino)-9-(3-{[2-(tetrahydro-2H-pyran-2-yl)ethyl]amino}propyl)-7,9-dihydro-8H-purin-8-one] | < 10 |
